This note sets out measurements from paper PMC9676650, “Binding pocket stabilization by high-throughput screening of yeast display libraries” (Frontiers in Molecular Biosciences, 2022).

The target in one assay is T1, FKBP51 variant D68Y (Homo sapiens, UniProt Q13451, D68Y).
T1 construct: made in house; host or cells: E. coli BL21 (DE3)
T1 sequence (Q13451 1-140 D68Y): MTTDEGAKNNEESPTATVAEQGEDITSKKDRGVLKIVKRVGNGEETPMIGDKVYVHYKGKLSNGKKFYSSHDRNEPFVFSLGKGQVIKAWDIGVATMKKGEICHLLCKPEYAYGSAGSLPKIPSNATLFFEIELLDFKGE
As to the kind of experiment: Competitive fluorescence polarization assay, FKBP51 D68Y. The settings on record: 80-100 nM FKBP51 D68Y; 1 nM FK [431]-TA tracer; 30 min room temperature; fitted as KI in competitive binding model; read-out: Kd-value (ligand binding constant, competitive fluorescence polarization). From the text:
(§1) All ligands and tracers used for fluorescence polarization assays had purities of more than 95%. The following ligands and tracers were used for fluorescence polarization and FACS screening experiments: •SAFit-FL tracer (1): Fluorescein conjugated analog of the iFit ligand class. •Mcyc-TA tracer (2): TAMRA conjugated macrocyclic ligand (5). •FK [431]-TA tracer (3): TAMRA conjugated FK [431] ligand (6). •SAFit1 ligand (4): analog of the iFit ligand class. •macrocyclic ligand (5):macrocyclic analog of the SAFit class ligands. •FK [431] ligand (6):bicyclic analog of the immunosuppressive drug FK506
(§2) In order to rule out artifacts introduced by the fluorophore of the tracers, competitive fluorescence polarization assays were carried out. Therefore, a serial dilution of an FK [431] ligand (6), SAFit1 (4), or a macrocyclic ligand 5) (Supplementary Figure S8) in assay buffer was placed in a 384-well assay plate. To the compounds, a mixture of the respective protein (20 nM WT, 10–40 nM G64S or 80–100 nM D68Y) and 1 nM of the FK [431]-TA in assay buffer was added. After incubating for 30 min at room temperature, the fluorescence polarization was measured. […]

Another assay addresses T2, FKBP51 WT (Homo sapiens, UniProt Q13451).
T2 construct: made in house; host or cells: E. coli BL21 (DE3)
T2 sequence (Q13451 1-140): T1 sequence (Q13451 1-140 D68Y) with Y68D
As to the kind of experiment: Competitive fluorescence polarization assay, FKBP51 WT. The settings on record: 20 nM FKBP51 WT; 1 nM FK [431]-TA tracer; 30 min room temperature; fitted as KI in competitive binding model; read-out: Kd-value (ligand binding constant, competitive fluorescence polarization).
From the text: as §1, §2

In a further assay the target is T3, FKBP51 variant G64S (Homo sapiens, UniProt Q13451, G64S).
T3 construct: made in house; host or cells: E. coli BL21 (DE3)
T3 sequence (Q13451 1-140 G64S): T1 sequence (Q13451 1-140 D68Y) with G64S, Y68D
Description: Competitive fluorescence polarization assay, FKBP51 G64S. The settings on record: 10-40 nM FKBP51 G64S; 1 nM FK [431]-TA tracer; 30 min room temperature; fitted as KI in competitive binding model; read-out: Kd-value (ligand binding constant, competitive fluorescence polarization).
From the text: as §1, §2
For orientation: Polarisation of emitted light reports the rotation of a fluorescent probe.

Substitutions are numbered along the chain they refer to.

With `COc1ccc(CC[C@@H](OC(=O)[C@@H]2CCCCN2C(=O)[C@H](c2cc(OC)c(OC)c(OC)c2)C2CCCCC2)c2cccc(OCC(=O)O)c2)cc1OC` [SAFit1], the results for the Kd at FKBP51 variant D68Y, at FKBP51 WT and on FKBP51 variant G64S were 0.2 ± 0.5 nM, 4.8 ± 0.4 nM and 0.5 ± 0.2 nM, respectively.

One may read the Kd as the concentration at which binding is half-saturated.
